Usually IC50 stands for the point on the concentration scale where inhibition reaches its midpoint. What is called AC50 is the midpoint of the concentration-response curve, whichever way the signal moves. Broadly, the EC50 is the concentration giving half of the maximal effect.

Active and inactive are the calls of the source.

For 13 molecules, IC50, AC50 and EC50 results are on record in ChEMBL document CHEMBL1201862, “PubChem BioAssay data set” (2004).

Data set [1] addresses DNA dC->dU-editing enzyme APOBEC-3G (Homo sapiens, UniProt Q9HC16). The format is functional.
In data set [2] the target is DNA dC->dU-editing enzyme APOBEC-3A (Homo sapiens, UniProt P31941). Description: Dose Response confirmation of small molecule APOBEC3A DNA Deaminase Inhibitors via a fluorescence-based single-stranded DNA deaminase assay. [Related pubchem assays (depositor defined):AID493011, AID493024]. Format: functional.
Chain of DNA dC->dU-editing enzyme APOBEC-3A (P31941 whole entry): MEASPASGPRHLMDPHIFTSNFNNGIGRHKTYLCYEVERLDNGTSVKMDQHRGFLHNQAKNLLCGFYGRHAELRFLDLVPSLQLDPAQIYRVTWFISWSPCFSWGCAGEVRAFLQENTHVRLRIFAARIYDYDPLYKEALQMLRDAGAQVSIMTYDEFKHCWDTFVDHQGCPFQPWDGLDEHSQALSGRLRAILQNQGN
The target in data set [3] is T1, Histone-lysine N-methyltransferase NSD2 (Homo sapiens, UniProt O96028).
T1 sequence (O96028 whole entry): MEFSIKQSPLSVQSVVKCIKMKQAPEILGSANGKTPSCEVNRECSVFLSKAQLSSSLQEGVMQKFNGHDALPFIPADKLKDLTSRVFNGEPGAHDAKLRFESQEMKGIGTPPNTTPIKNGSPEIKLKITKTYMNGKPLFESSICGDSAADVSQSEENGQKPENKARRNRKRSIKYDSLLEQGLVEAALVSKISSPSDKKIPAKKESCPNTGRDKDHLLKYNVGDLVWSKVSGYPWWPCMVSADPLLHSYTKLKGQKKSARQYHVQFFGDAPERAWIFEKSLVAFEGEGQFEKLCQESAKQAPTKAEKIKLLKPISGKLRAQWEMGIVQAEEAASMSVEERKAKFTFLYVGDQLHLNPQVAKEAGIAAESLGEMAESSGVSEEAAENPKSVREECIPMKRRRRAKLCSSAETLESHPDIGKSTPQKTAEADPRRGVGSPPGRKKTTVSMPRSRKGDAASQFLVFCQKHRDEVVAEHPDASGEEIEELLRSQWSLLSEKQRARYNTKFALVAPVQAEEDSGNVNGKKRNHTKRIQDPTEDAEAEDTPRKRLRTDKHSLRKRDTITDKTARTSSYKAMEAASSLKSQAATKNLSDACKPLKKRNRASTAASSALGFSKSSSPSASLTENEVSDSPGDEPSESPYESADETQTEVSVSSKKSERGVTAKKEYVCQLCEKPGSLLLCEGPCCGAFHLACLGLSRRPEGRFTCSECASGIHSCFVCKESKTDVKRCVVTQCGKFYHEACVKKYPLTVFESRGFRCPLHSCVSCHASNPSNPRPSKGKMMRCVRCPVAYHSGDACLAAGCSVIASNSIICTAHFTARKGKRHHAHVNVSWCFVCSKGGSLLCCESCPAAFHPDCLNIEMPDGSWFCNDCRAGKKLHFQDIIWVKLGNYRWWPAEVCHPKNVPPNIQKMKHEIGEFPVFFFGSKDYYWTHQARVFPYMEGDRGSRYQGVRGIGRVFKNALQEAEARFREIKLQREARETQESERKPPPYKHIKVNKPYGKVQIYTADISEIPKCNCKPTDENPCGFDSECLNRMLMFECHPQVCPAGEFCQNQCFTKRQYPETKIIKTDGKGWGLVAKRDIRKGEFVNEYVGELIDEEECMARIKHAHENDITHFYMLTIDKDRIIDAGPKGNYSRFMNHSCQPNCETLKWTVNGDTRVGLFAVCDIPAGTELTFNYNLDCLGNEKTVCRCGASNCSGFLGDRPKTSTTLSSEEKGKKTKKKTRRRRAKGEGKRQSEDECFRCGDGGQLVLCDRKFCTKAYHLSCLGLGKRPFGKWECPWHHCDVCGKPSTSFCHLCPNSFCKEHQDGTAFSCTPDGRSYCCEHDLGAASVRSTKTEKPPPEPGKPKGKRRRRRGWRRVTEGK
Format: biochemical.

For a further data set, the target named is Cytochrome P450 2C9 (Homo sapiens, UniProt P11712).
Chain of Cytochrome P450 2C9 (P11712 whole entry): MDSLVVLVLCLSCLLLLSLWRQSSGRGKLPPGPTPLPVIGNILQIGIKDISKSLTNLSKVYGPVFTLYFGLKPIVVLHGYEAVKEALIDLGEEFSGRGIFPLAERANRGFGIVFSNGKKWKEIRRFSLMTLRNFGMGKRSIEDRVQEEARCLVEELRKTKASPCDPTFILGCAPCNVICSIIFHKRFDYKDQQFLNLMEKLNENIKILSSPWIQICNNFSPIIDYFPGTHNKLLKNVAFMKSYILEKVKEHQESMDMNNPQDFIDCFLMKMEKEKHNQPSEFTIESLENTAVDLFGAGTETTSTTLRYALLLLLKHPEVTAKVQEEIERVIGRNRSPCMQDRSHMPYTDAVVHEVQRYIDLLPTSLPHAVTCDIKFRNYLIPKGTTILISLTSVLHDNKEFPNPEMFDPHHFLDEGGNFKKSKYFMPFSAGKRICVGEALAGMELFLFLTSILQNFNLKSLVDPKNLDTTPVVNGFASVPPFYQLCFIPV
The target of the next data set is Cytochrome P450 2D6 (Homo sapiens, UniProt P10635).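 Also: CYP2D6 member of a cytochrome P450 panel assay.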
Chain of Cytochrome P450 2D6 (P10635 whole entry): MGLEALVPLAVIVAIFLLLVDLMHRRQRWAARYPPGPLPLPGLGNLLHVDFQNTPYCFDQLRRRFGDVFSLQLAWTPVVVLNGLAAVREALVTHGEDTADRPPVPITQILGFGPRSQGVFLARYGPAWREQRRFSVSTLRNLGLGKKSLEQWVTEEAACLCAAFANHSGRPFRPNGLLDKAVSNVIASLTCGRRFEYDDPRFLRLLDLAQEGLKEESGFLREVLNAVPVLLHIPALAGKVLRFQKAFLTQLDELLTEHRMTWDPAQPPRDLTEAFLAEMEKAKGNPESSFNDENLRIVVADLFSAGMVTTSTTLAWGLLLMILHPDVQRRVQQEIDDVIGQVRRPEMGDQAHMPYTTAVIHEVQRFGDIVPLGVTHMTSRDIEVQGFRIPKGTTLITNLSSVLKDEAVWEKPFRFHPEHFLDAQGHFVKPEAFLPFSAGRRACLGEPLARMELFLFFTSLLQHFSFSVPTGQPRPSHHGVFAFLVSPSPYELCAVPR
The target in the next data set is Troponin, cardiac muscle (Homo sapiens, UniProt P19429+P45379+P63316). In words: Fluorescence-based biochemical high throughput dose response assay for activators of the calcium sensitivity of cardiac Regulated Thin Filaments (RTF). [Related pubchem assays (depositor defined):AID493008, AID493018, AID504382, AID504383]. The format is protein-complex assay.
The target of data set [4] is T2, Sentrin-specific protease 7 (Homo sapiens, UniProt Q9BQF6).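 Also: Luminescence-based dose-response confirmation of ultra-high-throughput screening hits, measuring inhibition of SENP7.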
T2 sequence (Q9BQF6 whole entry): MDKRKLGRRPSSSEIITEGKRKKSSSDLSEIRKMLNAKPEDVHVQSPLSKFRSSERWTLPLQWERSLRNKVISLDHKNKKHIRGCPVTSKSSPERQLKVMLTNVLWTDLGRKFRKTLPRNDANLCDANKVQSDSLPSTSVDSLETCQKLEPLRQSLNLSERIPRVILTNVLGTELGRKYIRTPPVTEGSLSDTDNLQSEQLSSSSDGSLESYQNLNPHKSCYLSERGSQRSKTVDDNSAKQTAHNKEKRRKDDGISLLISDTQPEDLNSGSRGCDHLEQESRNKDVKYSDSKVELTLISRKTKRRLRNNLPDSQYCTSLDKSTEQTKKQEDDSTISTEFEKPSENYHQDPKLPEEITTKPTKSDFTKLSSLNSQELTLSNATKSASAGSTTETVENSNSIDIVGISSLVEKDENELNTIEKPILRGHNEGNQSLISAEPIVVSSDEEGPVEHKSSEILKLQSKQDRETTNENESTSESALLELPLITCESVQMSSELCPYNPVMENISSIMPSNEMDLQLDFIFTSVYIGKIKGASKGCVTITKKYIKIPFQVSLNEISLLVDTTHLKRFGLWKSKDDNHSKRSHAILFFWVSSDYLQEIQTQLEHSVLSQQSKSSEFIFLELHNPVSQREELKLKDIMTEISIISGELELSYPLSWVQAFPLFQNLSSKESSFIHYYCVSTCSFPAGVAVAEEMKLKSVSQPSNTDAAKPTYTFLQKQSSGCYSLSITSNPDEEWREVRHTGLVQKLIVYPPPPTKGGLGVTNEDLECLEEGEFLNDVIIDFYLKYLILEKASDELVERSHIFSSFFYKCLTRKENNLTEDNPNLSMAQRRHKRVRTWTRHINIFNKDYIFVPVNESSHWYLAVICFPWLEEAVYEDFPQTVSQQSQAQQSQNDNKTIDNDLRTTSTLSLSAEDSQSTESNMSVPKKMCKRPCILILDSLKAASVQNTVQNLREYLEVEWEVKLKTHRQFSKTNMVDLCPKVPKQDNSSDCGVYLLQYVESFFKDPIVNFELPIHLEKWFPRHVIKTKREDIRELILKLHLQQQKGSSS
Format: functional.

The next data set addresses T3, Caspase-3 (Homo sapiens, UniProt P42574).
T3 sequence (P42574 whole entry): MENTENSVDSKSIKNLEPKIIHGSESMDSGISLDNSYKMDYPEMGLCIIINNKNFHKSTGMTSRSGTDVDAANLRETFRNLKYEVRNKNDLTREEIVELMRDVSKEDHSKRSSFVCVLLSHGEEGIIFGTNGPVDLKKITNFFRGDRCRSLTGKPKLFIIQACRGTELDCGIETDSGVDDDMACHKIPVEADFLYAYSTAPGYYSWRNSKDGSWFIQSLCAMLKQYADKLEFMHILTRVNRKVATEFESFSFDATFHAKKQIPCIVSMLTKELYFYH
The format is functional.

Data set [5] deals with T4, Sentrin-specific protease 8 (Homo sapiens, UniProt Q96LD8).
T4 sequence (Q96LD8 whole entry): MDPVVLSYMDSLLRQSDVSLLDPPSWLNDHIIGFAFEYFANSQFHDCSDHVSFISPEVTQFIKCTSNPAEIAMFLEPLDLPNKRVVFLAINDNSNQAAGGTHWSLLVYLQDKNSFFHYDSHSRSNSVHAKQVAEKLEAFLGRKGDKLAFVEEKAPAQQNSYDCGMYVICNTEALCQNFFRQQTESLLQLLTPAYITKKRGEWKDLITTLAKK
The format is functional.

Data set [6] deals with T5, Sentrin-specific protease 6 (Homo sapiens, UniProt Q9GZR1).
T5 sequence (Q9GZR1 whole entry): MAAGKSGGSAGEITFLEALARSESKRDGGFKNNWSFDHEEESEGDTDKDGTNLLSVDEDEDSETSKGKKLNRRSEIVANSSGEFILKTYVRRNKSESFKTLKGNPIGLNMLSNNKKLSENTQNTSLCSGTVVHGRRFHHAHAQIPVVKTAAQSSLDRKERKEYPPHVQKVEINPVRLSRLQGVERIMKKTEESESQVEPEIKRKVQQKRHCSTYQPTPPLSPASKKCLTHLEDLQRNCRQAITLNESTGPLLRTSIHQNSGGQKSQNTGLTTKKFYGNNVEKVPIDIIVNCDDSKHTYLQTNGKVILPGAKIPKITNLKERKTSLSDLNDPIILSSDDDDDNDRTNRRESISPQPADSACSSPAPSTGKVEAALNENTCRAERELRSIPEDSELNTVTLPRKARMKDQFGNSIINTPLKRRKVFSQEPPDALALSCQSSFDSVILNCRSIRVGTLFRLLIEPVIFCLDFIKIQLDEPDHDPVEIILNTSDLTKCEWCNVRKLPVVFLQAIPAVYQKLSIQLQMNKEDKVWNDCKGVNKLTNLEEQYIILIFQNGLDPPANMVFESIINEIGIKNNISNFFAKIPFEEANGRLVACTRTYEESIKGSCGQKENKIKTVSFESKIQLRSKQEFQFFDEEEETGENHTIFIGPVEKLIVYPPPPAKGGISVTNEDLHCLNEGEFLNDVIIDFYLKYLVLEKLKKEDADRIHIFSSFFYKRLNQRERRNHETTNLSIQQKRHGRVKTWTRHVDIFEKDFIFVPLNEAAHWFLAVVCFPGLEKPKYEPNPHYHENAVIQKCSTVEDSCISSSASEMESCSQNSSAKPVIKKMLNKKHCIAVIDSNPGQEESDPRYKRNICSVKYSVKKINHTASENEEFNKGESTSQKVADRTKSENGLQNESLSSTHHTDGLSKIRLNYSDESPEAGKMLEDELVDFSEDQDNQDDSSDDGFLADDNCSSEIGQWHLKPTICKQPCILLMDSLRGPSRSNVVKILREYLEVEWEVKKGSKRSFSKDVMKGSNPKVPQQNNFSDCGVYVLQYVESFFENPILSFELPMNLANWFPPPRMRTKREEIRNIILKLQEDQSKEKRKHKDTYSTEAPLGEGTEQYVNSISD
Format: functional.

The test system of the next data set is Escherichia coli. In words: microbe, parasite or virus in culture.
Data set [7] in a line: Luminescence Cell-Based Dose Response HTS to Identify Inhibitors of 5'UTR Stem-Loop Driven Prion Protein mRNA Translation in H4 Neuroglioblastoma Cells. [Related pubchem assays: 1827 (Project Summary), 1813 (Primary HTS)]. Format: functional.
The nature of data set [8]: cells. The format is functional, cell-based.
The nature of data set [9]: cells. The format is functional, cell-based. This is another data set of the same source.
For a further data set, the target named is Genome polyprotein (dengue virus type 2, UniProt P29990). In words: flavivirus cap methylation enzyme inhibition – biochemical, confirmation dose response, primary screen (AID 588689). Format: functional.
Chain of Genome polyprotein (P29990 2492-3391 limits assumed): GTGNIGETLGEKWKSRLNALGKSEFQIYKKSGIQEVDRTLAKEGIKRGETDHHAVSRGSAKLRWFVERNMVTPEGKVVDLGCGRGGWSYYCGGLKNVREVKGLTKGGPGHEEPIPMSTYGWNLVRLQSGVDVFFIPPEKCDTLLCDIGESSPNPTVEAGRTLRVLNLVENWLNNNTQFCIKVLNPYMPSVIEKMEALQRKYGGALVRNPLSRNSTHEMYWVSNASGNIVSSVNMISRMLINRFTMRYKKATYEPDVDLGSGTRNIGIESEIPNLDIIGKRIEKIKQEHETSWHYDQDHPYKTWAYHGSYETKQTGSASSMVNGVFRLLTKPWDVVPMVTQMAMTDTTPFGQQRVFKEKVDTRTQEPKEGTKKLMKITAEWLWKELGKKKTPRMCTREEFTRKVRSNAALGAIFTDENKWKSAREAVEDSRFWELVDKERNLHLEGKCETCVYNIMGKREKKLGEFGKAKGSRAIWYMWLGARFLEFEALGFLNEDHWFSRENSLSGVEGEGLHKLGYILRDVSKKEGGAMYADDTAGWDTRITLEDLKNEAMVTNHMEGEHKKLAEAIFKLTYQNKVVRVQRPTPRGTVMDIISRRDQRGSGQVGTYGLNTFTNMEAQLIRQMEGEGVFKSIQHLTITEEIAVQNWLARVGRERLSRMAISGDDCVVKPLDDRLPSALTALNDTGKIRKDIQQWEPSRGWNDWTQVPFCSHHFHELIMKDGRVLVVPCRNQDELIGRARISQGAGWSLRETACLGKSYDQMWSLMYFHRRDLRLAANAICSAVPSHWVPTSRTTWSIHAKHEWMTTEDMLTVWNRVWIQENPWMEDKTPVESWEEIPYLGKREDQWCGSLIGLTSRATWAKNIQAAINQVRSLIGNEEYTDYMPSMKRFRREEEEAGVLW

Chain of DNA dC->dU-editing enzyme APOBEC-3G (Q9HC16 whole entry): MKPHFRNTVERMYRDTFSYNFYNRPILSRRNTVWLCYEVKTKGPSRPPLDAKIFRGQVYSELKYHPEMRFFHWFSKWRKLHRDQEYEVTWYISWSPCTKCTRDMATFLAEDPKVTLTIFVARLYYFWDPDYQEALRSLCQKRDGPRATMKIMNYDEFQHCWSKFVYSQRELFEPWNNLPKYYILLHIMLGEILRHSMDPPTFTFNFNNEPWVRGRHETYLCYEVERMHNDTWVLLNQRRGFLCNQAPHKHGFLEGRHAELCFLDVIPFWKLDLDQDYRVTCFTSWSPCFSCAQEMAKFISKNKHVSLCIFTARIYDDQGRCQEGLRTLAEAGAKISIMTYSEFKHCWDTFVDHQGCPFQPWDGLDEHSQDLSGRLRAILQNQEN

For `O=C(O)c1ccc(CSc2n[nH]c(-c3ccco3)n2)cc1`, the half-maximal inhibitory concentration (IC50) was 19.3 µM (active) in data set [1] and 9.95 µM (active) in data set [2]. Further, in [3], the AC50 was > 20 µM (inactive).
As to `CC(=O)c1ccc[n+](CC(=O)NC(C)c2ccccc2)c1` (configuration not stated), the 50% inhibitory concentration (IC50) in data set [1] is 6.17 µM (active); in data set [2] it was 3.57 µM (active).
For `COc1ccccc1-c1noc(CSc2nc(C)cc(O)n2)n1` the same measures were 19.4 µM (active) and 16.6 µM (active).
As to `Cc1[nH]c2ccccc2c1/C=C(\C#N)C(=O)NC(C)c1ccccc1` (configuration not stated), the IC50 in data set [1] is 2.64 µM (active); in data set [2], 1.87 µM (active). The concentration at half-maximal activity (AC50) result on Cytochrome P450 2C9 was “inconclusive”; at Cytochrome P450 2D6, 8.91 µM (inconclusive).
For the molecule `CC1CN(c2ccc(NS(=O)(=O)c3ccccc3)cc2C(=O)O)CC(C)O1` (configuration not stated), the EC50 on Troponin, cardiac muscle was > 71.5 µM (inactive).
Turning to `O=[N+]([O-])c1cccc(/C=N/Nc2ccccn2)c1`, the half-maximal inhibitory concentration (IC50) is 7.65 µM (active) in data set [4], 8.82 µM (active) at Caspase-3, > 100 µM (inactive) in data set [5] and > 100 µM (inactive) in data set [6].
`Nc1nnnn1CC(=O)N/N=C/c1ccc(-c2cccc(Cl)c2)o1`: in the data set on Escherichia coli, the concentration at half-maximal activity (AC50) is 21.6 µM (active).
As for `CCOC(=O)c1ccc(NC(=O)/C=C/c2cccs2)cc1`, the IC50 in data set [4] was 4.96 µM (active); at Caspase-3 it was 21.6 µM (active); in [5], 14.5 µM (active); in data set [6] it was 15 µM (active).
On to `CCOC(=O)N1CCC(N(CCN(C)C)C(S)=Nc2ccc(Oc3ccccc3)cc2)CC1`, for which, in the data set on Escherichia coli, the half-maximal activity concentration (AC50) is 43.6 µM (active).
For the molecule `O=C(O)c1ccc2cc(-c3ccccc3)[nH]c2c1`, the half-maximal inhibitory concentration (IC50) is 0.938 µM (active) in [4], 1.22 µM (active) at Caspase-3, 1.53 µM (active) in data set [5] and 1.08 µM (active) in data set [6]. In addition, the concentration for a half-maximal effect (EC50) in data set [7] was 11.8 µM (inconclusive); in the data set “cells [8]”, > 350 µM (not active); in “cells [9]” it was 2.55 µM (active).
Turning to `COc1ccc(Cl)cc1N=C(S)NCc1cccnc1`, the concentration at half-maximal activity (AC50) in the data set on Escherichia coli was 29.7 µM (active).
As for `N#C/C(=C\c1ccc(C#N)cc1)C(=O)c1ccccc1`, the IC50 at Genome polyprotein was > 100 µM (active).
In the case of `COc1ccc(-c2nn(-c3ccccc3)cc2/C=N/NC(N)=S)cc1OC`, the EC50 on Troponin, cardiac muscle is > 71.5 µM (inactive).
